For assay [1], the target named is T1, mouse Siglec-2-Fc-Avi (CD22) (Mus musculus, UniProt P35329).
T1 construct: made in house
T1 sequence (P35329 22-708 limits assumed): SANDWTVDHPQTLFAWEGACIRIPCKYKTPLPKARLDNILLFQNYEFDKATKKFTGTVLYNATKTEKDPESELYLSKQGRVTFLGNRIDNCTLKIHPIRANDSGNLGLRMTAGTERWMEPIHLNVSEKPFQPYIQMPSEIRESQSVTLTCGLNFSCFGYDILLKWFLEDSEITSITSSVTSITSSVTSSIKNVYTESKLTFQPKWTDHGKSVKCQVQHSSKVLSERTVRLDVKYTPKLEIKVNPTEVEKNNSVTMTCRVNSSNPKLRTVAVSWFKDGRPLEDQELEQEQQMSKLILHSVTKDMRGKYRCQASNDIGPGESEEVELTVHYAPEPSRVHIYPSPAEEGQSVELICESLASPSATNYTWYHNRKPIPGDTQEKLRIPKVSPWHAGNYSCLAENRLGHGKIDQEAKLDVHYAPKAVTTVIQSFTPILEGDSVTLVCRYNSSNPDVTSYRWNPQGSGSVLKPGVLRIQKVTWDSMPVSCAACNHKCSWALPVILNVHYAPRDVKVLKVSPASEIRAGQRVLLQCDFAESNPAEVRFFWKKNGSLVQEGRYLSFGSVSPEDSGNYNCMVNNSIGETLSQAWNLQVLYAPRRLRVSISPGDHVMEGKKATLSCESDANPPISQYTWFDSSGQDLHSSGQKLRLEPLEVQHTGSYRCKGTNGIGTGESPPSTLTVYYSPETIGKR
The experiment in a line: SPR binding affinity to mouse CD22. The settings on record: steady-state analysis. The procedure, abridged:
(§1)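 Native sialic acid residues are removed from the receptor enzymatically (4 hours at 37° C.) prior to streptavidin capture of the biotinylated protein. Ligand compounds then flow over in HEPES-buffered saline, pH 7.5, containing 0.05% Tween-20 and 1% DMSO, and binding is evaluated at steady state.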
(Surface plasmon resonance follows binding to a sensor surface in real time, without labels.)

For assay [2], the target named is T2, human Siglec-2/CD22 protein (Homo sapiens, UniProt P20273).
T2 construct: purchased Acro Biosystems SI2-H82E3
T2 sequence (P20273 20-847): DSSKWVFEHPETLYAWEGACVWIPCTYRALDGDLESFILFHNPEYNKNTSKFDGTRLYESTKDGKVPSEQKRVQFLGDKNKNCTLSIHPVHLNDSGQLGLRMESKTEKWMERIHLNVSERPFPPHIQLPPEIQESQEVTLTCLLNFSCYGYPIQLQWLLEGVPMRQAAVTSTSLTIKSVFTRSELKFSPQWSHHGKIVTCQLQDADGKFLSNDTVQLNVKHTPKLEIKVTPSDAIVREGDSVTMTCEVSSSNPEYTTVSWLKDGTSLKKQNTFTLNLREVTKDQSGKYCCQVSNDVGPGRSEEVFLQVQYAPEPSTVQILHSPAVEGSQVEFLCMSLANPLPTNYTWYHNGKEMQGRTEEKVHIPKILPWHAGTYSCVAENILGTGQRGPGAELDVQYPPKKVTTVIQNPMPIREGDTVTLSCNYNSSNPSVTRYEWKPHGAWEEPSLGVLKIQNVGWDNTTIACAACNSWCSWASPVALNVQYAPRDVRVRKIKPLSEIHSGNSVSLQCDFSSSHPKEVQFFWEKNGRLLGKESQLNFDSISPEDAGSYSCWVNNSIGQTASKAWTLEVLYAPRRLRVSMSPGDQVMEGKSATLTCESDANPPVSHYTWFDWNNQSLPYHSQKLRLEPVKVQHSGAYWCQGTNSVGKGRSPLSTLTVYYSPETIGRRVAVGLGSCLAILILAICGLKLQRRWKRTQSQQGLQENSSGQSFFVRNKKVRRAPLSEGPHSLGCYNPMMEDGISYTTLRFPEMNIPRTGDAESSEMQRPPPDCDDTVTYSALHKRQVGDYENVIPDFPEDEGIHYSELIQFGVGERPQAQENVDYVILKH
The experiment in a line: SPR binding affinity to human CD22. The conditions noted are these: steady-state analysis. The procedure, abridged:
as §1

The target in the next assay is cynomolgus Siglec-2/CD22 (Macaca fascicularis, UniProt A0A2K5WCZ6). Description: biochemical. It is filed as binding. The settings on record: SPR, steady-state analysis; read-out: Affinity cyno CD22. The procedure, abridged:
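SPR with desialylated (SialoExo, 4 h, 37° C.) cynomolgus CD22 amine-coupled to a CM5 chip. Running buffer 10 mM HEPES, 150 mM NaCl, 0.05% Tween-20, pH 7.5, 1% DMSO, with solvent correction; 120 s dissociation. Affinities from steady-state analysis.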

Chain of cynomolgus Siglec-2/CD22 (A0A2K5WCZ6 entry or part of it): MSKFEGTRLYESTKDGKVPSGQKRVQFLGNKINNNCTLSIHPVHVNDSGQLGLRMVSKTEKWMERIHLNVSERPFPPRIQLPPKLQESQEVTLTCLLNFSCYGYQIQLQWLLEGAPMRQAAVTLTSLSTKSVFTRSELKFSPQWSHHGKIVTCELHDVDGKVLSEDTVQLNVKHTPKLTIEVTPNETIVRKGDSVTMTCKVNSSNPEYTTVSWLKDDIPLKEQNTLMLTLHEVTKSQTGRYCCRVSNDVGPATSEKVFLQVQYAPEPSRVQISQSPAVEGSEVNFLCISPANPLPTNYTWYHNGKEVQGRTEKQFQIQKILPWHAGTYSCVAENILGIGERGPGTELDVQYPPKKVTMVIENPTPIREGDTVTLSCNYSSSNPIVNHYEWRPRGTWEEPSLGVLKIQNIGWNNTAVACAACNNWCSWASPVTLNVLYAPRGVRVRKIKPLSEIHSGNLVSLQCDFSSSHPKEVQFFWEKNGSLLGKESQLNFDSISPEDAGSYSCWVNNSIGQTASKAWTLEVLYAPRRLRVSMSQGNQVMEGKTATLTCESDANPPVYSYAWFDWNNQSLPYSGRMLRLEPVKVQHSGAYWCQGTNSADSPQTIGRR

Take `C#CCCOc1ccc(CO[C@]2(C(=O)O)C[C@H](O)[C@@H](N)[C@H]([C@H](O)[C@H](O)CNC(=O)Cc3ccc(-c4ccc(O)cc4)cc3)O2)cc1` [Compound 55, (2R,4S,5R,6R)-5-amino-2-((4-(but-3-yn-1-yloxy)benzyl)oxy)-6-((1R,2R)-1,2-dihydroxy-3-(2-(4′-hydroxy-[1,1′-biphenyl]-4-yl)acetamido)propyl)-4-hydroxytetrahydro-2H-pyran-2-carboxylic acid]: the Kd is less than 1000 nM in assay [1], 1000 to 10000 nM in assay [2] and 1000 to 10000 nM on cynomolgus Siglec-2/CD22.
Take `C#CCOc1ccc(CO[C@]2(C(=O)O)C[C@H](O)[C@@H](NC(=O)CO)[C@H]([C@H](O)[C@H](O)CNC(=O)Cc3ccc(-c4ccc(O)cc4)cc3C)O2)cc1` [Compound 56, (2R,4S,5R,6R)-6-((1R,2R)-1,2-dihydroxy-3-(2-(4′-hydroxy-3-methyl-[1,1′-biphenyl]-4-yl)acetamido)propyl)-4-hydroxy-5-(2-hydroxyacetamido)-2-((4-(prop-2-yn-1-yloxy)benzyl)oxy)tetrahydro-2H-pyran-2-carboxylic acid]: the Kd in assay [1] was less than 1000 nM; in assay [2], less than 1000 nM; on cynomolgus Siglec-2/CD22 it was 1000 to 10000 nM.
Take `C#CCOCCOCCO[C@]1(C(=O)O)C[C@H](O)[C@@H](NC(=O)CNC(C)=O)[C@H]([C@H](O)[C@H](O)CNC(=O)Cc2ccc(-c3ccc(O)cc3)cc2)O1` [Compound 57, (2R,4S,5R,6R)-5-(2-acetamidoacetamido)-6-((1R,2R)-1,2-dihydroxy-3-(2-(4′-hydroxy-[1,1′-biphenyl]-4-yl)acetamido)propyl)-4-hydroxy-2-(2-(2-(prop-2-yn-1-yloxy)ethoxy)ethoxy)tetrahydro-2H-pyran-2-carboxylic acid]: the results for the Kd (in assay [1]; in assay [2]; at cynomolgus Siglec-2/CD22) were greater than 10000 nM, 1000 to 10000 nM and 1000 to 10000 nM, respectively.
With `C#CCOCCOCCO[C@]1(C(=O)O)C[C@H](O)[C@@H](NC(=O)CC#N)[C@H]([C@H](O)[C@H](O)CNC(=O)Cc2ccc(-c3ccc(O)cc3)cc2)O1` [Compound 58, (2R,4S,5R,6R)-5-(2-cyanoacetamido)-6-((1R,2R)-1,2-dihydroxy-3-(2-(4′-hydroxy-[1,1′-biphenyl]-4-yl)acetamido)propyl)-4-hydroxy-2-(2-(2-(prop-2-yn-1-yloxy)ethoxy)ethoxy)tetrahydro-2H-pyran-2-carboxylic acid], the Kd (in assay [1]; in assay [2]; at cynomolgus Siglec-2/CD22) was 1000 to 10000 nM each time.
For the compound `C#CCOc1ccccc1-c1cn([C@]2(C(=O)O)C[C@H](O)[C@@H](NC(=O)CO)[C@H]([C@H](O)[C@H](O)CNC(=O)Cc3ccc(-c4ccc(O)cc4)cc3)O2)nn1` [Compound 59, (2R,4S,5R,6R)-6-((1R,2R)-1,2-dihydroxy-3-(2-(4′-hydroxy-[1,1′-biphenyl]-4-yl)acetamido)propyl)-4-hydroxy-5-(2-hydroxyacetamido)-2-(4-(2-(prop-2-yn-1-yloxy)phenyl)-1H-1,2,3-triazol-1-yl)tetrahydro-2H-pyran-2-carboxylic acid], the figures for the Kd (in assay [1]; in assay [2]; on cynomolgus Siglec-2/CD22) were 1000 to 10000 nM, less than 1000 nM and 1000 to 10000 nM, respectively.
As for `C#CCOc1cccc(-c2cn([C@]3(C(=O)O)C[C@H](O)[C@@H](NC(=O)CO)[C@H]([C@H](O)[C@H](O)CNC(=O)Cc4ccc(-c5ccc(O)cc5)cc4)O3)nn2)c1` [Compound 60, (2R,4S,5R,6R)-6-((1R,2R)-1,2-dihydroxy-3-(2-(4′-hydroxy-[1,1′-biphenyl]-4-yl)acetamido)propyl)-4-hydroxy-5-(2-hydroxyacetamido)-2-(4-(3-(prop-2-yn-1-yloxy)phenyl)-1H-1,2,3-triazol-1-yl)tetrahydro-2H-pyran-2-carboxylic acid], the Kd (in assay [1]; in assay [2]; at cynomolgus Siglec-2/CD22) was 1000 to 10000 nM each time.
Take `C#CCCOc1ccc(CO[C@]2(C(=O)O)C[C@H](O)[C@@H](NC(=O)NC)[C@H]([C@H](O)[C@H](O)CNC(=O)Cc3ccc(-c4ccc(O)cc4)cc3)O2)cc1` [Compound 61, (2R,4S,5R,6R)-2-((4-(but-3-yn-1-yloxy)benzyl)oxy)-6-((1R,2R)-1,2-dihydroxy-3-(2-(4′-hydroxy-[1,1′-biphenyl]-4-yl)acetamido)propyl)-4-hydroxy-5-(3-methylureido)tetrahydro-2H-pyran-2-carboxylic acid]: the Kd (in assay [1]; in assay [2]; at cynomolgus Siglec-2/CD22) was less than 1000 nM throughout.
Turning to `C#CCOCc1cn([C@]2(C(=O)O)C[C@H](O)[C@@H](NC(=O)CO)[C@H]([C@H](O)[C@H](O)CNC(=O)Cc3ccc(-c4ccc(O)cc4)cc3)O2)nn1` [Compound 62, (2R,4S,5R,6R)-6-((1R,2R)-1,2-dihydroxy-3-(2-(4′-hydroxy-[1,1′-biphenyl]-4-yl)acetamido)propyl)-4-hydroxy-5-(2-hydroxyacetamido)-2-(4-((prop-2-yn-1-yloxy)methyl)-1H-1,2,3-triazol-1-yl)tetrahydro-2H-pyran-2-carboxylic acid], the Kd (in assay [1]; in assay [2]; on cynomolgus Siglec-2/CD22) was 1000 to 10000 nM throughout.
On to `C#CCOCCCCCCO[C@]1(C(=O)O)C[C@H](O)[C@@H](NC(=O)CO)[C@H]([C@H](O)[C@H](O)CNC(=O)Cc2ccc(-c3ccc(O)cc3)cc2)O1` [Compound 63, (2R,4S,5R,6R)-6-((1R,2R)-1,2-dihydroxy-3-(2-(4′-hydroxy-[1,1′-biphenyl]-4-yl)acetamido)propyl)-4-hydroxy-5-(2-hydroxyacetamido)-2-((6-(prop-2-yn-1-yloxy)hexyl)oxy)tetrahydro-2H-pyran-2-carboxylic acid], for which the Kd (in assay [1]; in assay [2]; on cynomolgus Siglec-2/CD22) was less than 1000 nM in each case.
In the case of `C#CCCOc1ccc(CS[C@]2(C(=O)O)C[C@H](O)[C@@H](NC(=O)CO)[C@H]([C@H](O)[C@H](O)CNC(=O)Cc3ccc(-c4ccc(O)cc4)cc3)O2)cc1` [Compound 64, (2S,4S,5R,6R)-2-((4-(but-3-yn-1-yloxy)benzyl)thio)-6-((1R,2R)-1,2-dihydroxy-3-(2-(4′-hydroxy-[1,1′-biphenyl]-4-yl)acetamido)propyl)-4-hydroxy-5-(2-hydroxyacetamido)tetrahydro-2H-pyran-2-carboxylic acid], the Kd (in assay [1]; in assay [2]; on cynomolgus Siglec-2/CD22) was less than 1000 nM in each case.
With `C#CCOCCOCCO[C@]1(C(=O)NS(C)(=O)=O)C[C@H](O)[C@@H](NC(=O)CO)[C@H]([C@H](O)[C@H](O)CNC(=O)Cc2ccc(-c3ccc(O)cc3)cc2)O1` [Compound 65, (2R,4S,5R,6R)-6-((1R,2R)-1,2-dihydroxy-3-(2-(4′-hydroxy-[1,1′-biphenyl]-4-yl)acetamido)propyl)-4-hydroxy-5-(2-hydroxyacetamido)-N-(methylsulfonyl)-2-(2-(2-(prop-2-yn-1-yloxy)ethoxy)ethoxy)tetrahydro-2H-pyran-2-carboxamide], the Kd (in assay [1]; in assay [2]; on cynomolgus Siglec-2/CD22) was greater than 10000 nM in each case.
